Assay results as given in patent publication US20240246960A1 (adMare Therapeutics Society, priority 2021, published 2024).
pIC50: −log10 of the molar value.

Tests used:
DNA-PK = molecular target: T1, DNA-PK (Homo sapiens, UniProt P78527); test: DNA-PK Assay for Biochemical Enzymatic Inhibition (ADP Glo Kinase assay); details: Table 1
T1 construct: purchased Invitrogen PR9107A
Procedure, shortened: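 Human DNA-PK (25 ng) preincubated 15 min with compounds (ten three-fold dilutions) in HEPES pH 7.5, MgCl2, KCl, calf thymus DNA buffer, then substrate 434.4 μM and ATP 64.4 μM (final) for 60 min at room temperature. ADP-Glo luminescence; percent inhibition fitted by four-parameter regression for IC50.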

[1] = Hepatocyte stability assay, mouse hepatocytes; type: in vitro ADME; details: for hepatocyte CLint at 1 uM: male, CD-1, mouse, cryopreserved hepatocytes, pH 7.3, 0.7 million cells per mL, 1 uM compound
Method: (§1) Cryopreserved mouse hepatocytes were obtained from a pool of 10 or more male CD-1 mice. Cryopreserved human hepatocytes were obtained from a pool of 10 or more donors of mixed gender. Final hepatocyte density was 0.7 million viable cells per mL and test compound concentration was 1 uM with a maximum of 0.01% DMSO. Cryopreserved hepatocytes were thawed, washed, and resuspended in Krebs-Heinslet buffer (pH 7.3). The reaction was initiated by adding the test compound into cell suspension and incubated for 0, […], 1, 1.5, and 2 h, respectively, at 37° C./5% CO2. The reaction was stopped by adding acetonitrile into the incubation mixture. Samples were then mixed, transferred completely to another 96-well plate, and centrifuged. Supernatants were used for HPLC-MS/MS analysis. […] Peak areas corresponding to the test compound were recorded.

[2] = Hepatocyte stability assay, human hepatocytes; type: in vitro ADME; details: for hepatocyte CLint at 1 uM: both sexes, human, cryopreserved hepatocytes, pH 7.3, 0.7 million cells per mL, 1 uM compound
Method: as §1

[3] = Microsomal stability assay, mouse liver microsomes; details: for microsomal CLint at 0.1 uM: male, CD-1, mouse, liver microsomes, pH 7.4, Microsomal Stability Mouse Clint, 0.1 mg/mL microsomes, 0.1 uM compound
Method: Mouse liver microsomes were obtained from a pool of 250 or more male CD-1 mice. […] Final microsomal concentration was 0.1 mg/mL and test compound concentration was 0.1 uM with a maximum of 0.01% DMSO. The test compound was pre-incubated with pooled liver microsomes in phosphate buffer (pH 7.4) for 5 min in a 37° C. shaking water bath. The reaction was initiated by adding NADPH-generating system and incubated for 0, 15, 30, 45, and 60 min. The reaction was stopped by transferring the incubation mixture to acetonitrile/methanol. Samples were then mixed and centrifuged. Supernatants were used for HPLC-MS/MS analysis. The HPLC system consisted of a binary LC pump with autosampler, a C-18 column, and a gradient. Peak areas corresponding to the test compound were recorded. The compound remaining was calculated by comparing the peak area at each time point to time zero. The half-life was calculated from the slope of the initial linear range of the logarithmic curve of compound remaining (%) vs. time, assuming first order kinetics. In addition, the intrinsic clearance (Clint) was calculated from the half-life.

Structure (SMILES)	pIC50 (DNA-PK)	Hepatocyte Stability (mouse) % rem. 120 min [1]	hepatocyte CLint at 1 uM [1]	Hepatocyte Stability (human) % rem. 120 min [2]	hepatocyte CLint at 1 uM [2]	Microsomal Stability (mouse) % rem. 60 min [3]	microsomal CLint at 0.1 uM [3]
FC(F)c1ccc2c(O[C@H]3CC[C@@H](Nc4ncccn4)CC3)nc(N3CCOCC3)cc2n1 [Compound 21, N-((1s,4s)-4-((2-(Difluoromethyl)-7-morpholino-1,6-naphthyridin-5-yl)oxy)cyclohexyl)pyrimidin-2-amine]	9.00 to 9.30	G (% remaining = 50-75%)	< 8.2 µL/min/1e6 cells	G (% remaining = 50-75%)	< 8.2 µL/min/1e6 cells	–	–
FC(F)c1ccnc2cc(N3CCOCC3)nc(O[C@H]3CC[C@@H](Nc4ncccn4)CC3)c12 [Compound 22, N-((1s,4s)-4-((4-(Difluoromethyl)-7-morpholino-1,6-naphthyridin-5-yl)oxy)cyclohexyl)pyrimidin-2-amine]	> 9.30	F (% remaining = 25-50%)	> 8.2 µL/min/1e6 cells	E (% remaining = 0-25%)	> 8.2 µL/min/1e6 cells	–	–
c1cnc2cc(N3CCOCC3)nc(O[C@H]3CC[C@@H](Nc4cncnc4)CC3)c2c1 [Compound 28, N-((1s,4s)-4-((7-morpholino-1,6-naphthyridin-5-yl)oxy)cyclohexyl)pyrimidin-5-amine]	9.00 to 9.30	E (% remaining = 0-25%)	> 8.2 µL/min/1e6 cells	–	–	E (% remaining = 0-25%)	> 116 µL/min/mg
COc1ccc(N[C@H]2CC[C@@H](Oc3nc(N4CCOCC4)cc4ncccc34)CC2)nn1 [Compound 38, 6-methoxy-N-((1s,4s)-4-((7-morpholino-1,6-naphthyridin-5-yl)oxy)cyclohexyl)pyridazin-3-amine]	9.00 to 9.30	F (% remaining = 25-50%)	> 8.2 µL/min/1e6 cells	E (% remaining = 0-25%)	> 8.2 µL/min/1e6 cells	–	–
CS(=O)(=O)Nc1cnc(N[C@H]2CC[C@@H](Oc3nc(N4CCOCC4)cc4ncccc34)CC2)nc1 [Compound 44, N-(2-(((1s,4s)-4-((7-morpholino-1,6-naphthyridin-5-yl)oxy)cyclohexyl)amino)pyrimidin-5-yl)methanesulfonamide]	> 9.30	G (% remaining = 50-75%)	< 8.2 µL/min/1e6 cells	H (% remaining = 75-100%)	< 8.2 µL/min/1e6 cells	–	–
Oc1cnc(N[C@H]2CC[C@@H](Oc3nc(N4CCOCC4)cc4ncccc34)CC2)nc1 [Compound 45, 2-(((1s,4s)-4-((7-morpholino-1,6-naphthyridin-5-yl)oxy)cyclohexyl)amino)pyrimidin-5-ol]	9.00 to 9.30	F (% remaining = 25-50%)	> 8.2 µL/min/1e6 cells	F (% remaining = 25-50%)	< 8.2 µL/min/1e6 cells	–	–
COc1ccnc(N[C@H]2CC[C@@H](Oc3nc(N4CCOCC4)cc4ncccc34)CC2)n1 [Compound 49, 4-methoxy-N-((1s,4s)-4-((7-morpholino-1,6-naphthyridin-5-yl)oxy)cyclohexyl)pyrimidin-2-amine]	9.00 to 9.30	F (% remaining = 25-50%)	> 8.2 µL/min/1e6 cells	F (% remaining = 25-50%)	> 8.2 µL/min/1e6 cells	–	–
CN(C)C(=O)c1cnc(N[C@H]2CC[C@@H](Oc3nc(N4CCOCC4)cc4ncccc34)CC2)nc1 [Compound 53, N,N-dimethyl-2-(((1s,4s)-4-((7-morpholino-1,6-naphthyridin-5-yl)oxy)cyclohexyl)amino)pyrimidine-5-carboxamide]	9.00 to 9.30	H (% remaining = 75-100%)	< 8.2 µL/min/1e6 cells	G (% remaining = 50-75%)	< 8.2 µL/min/1e6 cells	–	–
c1cnc2cc(N3CCOCC3)nc(O[C@H]3CC[C@@H](Nc4ncnc5ccoc45)CC3)c2c1 [Compound 80a, N-((1s,4s)-4-((7-morpholino-1,6-naphthyridin-5-yl)oxy)cyclohexyl)furo[3,2-d]pyrimidin-4-amine]	> 9.30	F (% remaining = 25-50%)	> 8.2 µL/min/1e6 cells	G (% remaining = 50-75%)	< 8.2 µL/min/1e6 cells	–	–
Cc1nc(N[C@H]2CC[C@@H](Oc3nc(N4CCOCC4)cc4ncccc34)CC2)c2occc2n1 [Compound 81, 2-methyl-N-((1s,4s)-4-((7-morpholino-1,6-naphthyridin-5-yl)oxy)cyclohexyl)furo[3,2-d]pyrimidin-4-amine]	> 9.30	F (% remaining = 25-50%)	> 8.2 µL/min/1e6 cells	G (% remaining = 50-75%)	< 8.2 µL/min/1e6 cells	–	–
c1cnc2cc(N3CCOCC3)nc(O[C@H]3CC[C@@H](Nc4ncnc5occc45)CC3)c2c1 [Compound 82, N-((1s,4s)-4-((7-morpholino-1,6-naphthyridin-5-yl)oxy)cyclohexyl)furo[2,3-d]pyrimidin-4-amine]	> 9.30	E (% remaining = 0-25%)	> 8.2 µL/min/1e6 cells	F (% remaining = 25-50%)	> 8.2 µL/min/1e6 cells	–	–
O=C(N[C@H]1CC[C@@H](Oc2nc(N3CCOCC3)cc3ncccc23)CC1)c1ccncn1 [Compound 118, N-((1s,4s)-4-((7-morpholino-1,6-naphthyridin-5-yl)oxy)cyclohexyl)pyrimidine-4-carboxamide]	9.00 to 9.30	E (% remaining = 0-25%)	> 8.2 µL/min/1e6 cells	–	–	F (% remaining = 25-50%)	> 116 µL/min/mg
O=C(N[C@H]1CC[C@@H](Oc2nc(N3CCOCC3)cc3ncccc23)CC1)c1nccs1 [Compound 135, N-((1s,4s)-4-((7-morpholino-1,6-naphthyridin-5-yl)oxy)cyclohexyl)thiazole-2-carboxamide]	> 9.30	F (% remaining = 25-50%)	> 8.2 µL/min/1e6 cells	–	–	E (% remaining = 0-25%)	> 116 µL/min/mg

Other lines, results leading:

pIC50 (DNA-PK)	Hepatocyte Stability (mouse) % rem. 120 min [1]	hepatocyte CLint at 1 uM [1]	Hepatocyte Stability (human) % rem. 120 min [2]	hepatocyte CLint at 1 uM [2]	Microsomal Stability (mouse) % rem. 60 min [3]	microsomal CLint at 0.1 uM [3]	Structure (SMILES)
> 9.30	H (% remaining = 75-100%)	< 8.2 µL/min/1e6 cells	F (% remaining = 25-50%)	> 8.2 µL/min/1e6 cells	–	–	Cn1cnc(N[C@H]2CC[C@@H](Oc3nc(N4CCOCC4)cc4ncccc34)CC2)n1 [Compound 31, 1-methyl-N-((1s,4s)-4-((7-morpholino-1,6-naphthyridin-5-yl)oxy)cyclohexyl)-1H-1,2,4-triazol-3-amine]
> 9.30	F (% remaining = 25-50%)	> 8.2 µL/min/1e6 cells	G (% remaining = 50-75%)	< 8.2 µL/min/1e6 cells	–	–	Nc1cnc(N[C@H]2CC[C@@H](Oc3nc(N4CCOCC4)cc4ncccc34)CC2)nc1 [Compound 43, N2-((1s,4s)-4-((7-morpholino-1,6-naphthyridin-5-yl)oxy)cyclohexyl)pyrimidine-2,5-diamine]
9.00 to 9.30	G (% remaining = 50-75%)	< 8.2 µL/min/1e6 cells	G (% remaining = 50-75%)	< 8.2 µL/min/1e6 cells	–	–	NS(=O)(=O)c1cnc(N[C@H]2CC[C@@H](Oc3nc(N4CCOCC4)cc4ncccc34)CC2)nc1 [Compound 46, 2-(((1s,4s)-4-((7-morpholino-1,6-naphthyridin-5-yl)oxy)cyclohexyl)amino)pyrimidine-5-sulfonamide]
> 9.30	F (% remaining = 25-50%)	> 8.2 µL/min/1e6 cells	F (% remaining = 25-50%)	< 8.2 µL/min/1e6 cells	–	–	Cc1ccnc(N[C@H]2CC[C@@H](Oc3nc(N4CCOCC4)cc4ncccc34)CC2)n1 [Compound 48, 4-methyl-N-((1s,4s)-4-((7-morpholino-1,6-naphthyridin-5-yl)oxy)cyclohexyl)pyrimidin-2-amine]
> 9.30	H (% remaining = 75-100%)	< 8.2 µL/min/1e6 cells	G (% remaining = 50-75%)	< 8.2 µL/min/1e6 cells	–	–	NC(=O)c1cnc(N[C@H]2CC[C@@H](Oc3nc(N4CCOCC4)cc4ncccc34)CC2)nc1 [Compound 52, 2-(((1s,4s)-4-((7-morpholino-1,6-naphthyridin-5-yl)oxy)cyclohexyl)amino)pyrimidine-5-carboxamide]
> 9.30	F (% remaining = 25-50%)	> 8.2 µL/min/1e6 cells	–	–	F (% remaining = 25-50%)	> 116 µL/min/mg	O=C(N[C@H]1CC[C@@H](Oc2nc(N3CCOCC3)cc3ncccc23)CC1)c1cccnc1 [Compound 115, N-((1s,4s)-4-((7-morpholino-1,6-naphthyridin-5-yl)oxy)cyclohexyl)nicotinamide]
